What all share (format): cell-based, human
One test deals with TET1 mRNA in 1833 cells. Kind of test: qRT-PCR for TET1 mRNA after demethylation treatment of 1833 cells. Conditions: 1833 cells treated with 5-azacytidine, GAPDH normalization (FIG. 18D). Here is the method: (§1) Total RNA was isolated from cells by using miRNeasy Mini Kit (Qiagen) following the manufacturer's instructions. Quantitative RT-PCR (qRT-PCR) was performed as described (4). The qPCR primers for human or murine HMGA2, TET1, HOXA genes and GAPDH were Taqman and were purchased from Applied Biosystems. Cells were subjected to 5-azacytidine (1 or 3.6 μM), decitabine (5-aza-dC; 220 or 440 nM), or mock treatment by addition into cell culture at indicated concentration. Cells were treated daily. RNA and protein were isolated respectively.
A general note: Quantitative PCR measures a nucleic acid by following its amplification.

A further test concerns HOXA7 mRNA in 1833 cells. Nature of the test: qRT-PCR for HOXA7 mRNA after demethylation treatment of 1833 cells. The following applies: 1833 cells treated with 5-azacytidine, GAPDH normalization (FIG. 20F). Here is the method: as §1
The subject of the next test is 1833 cells. Nature of the test: In vitro cell invasion assay (Matrigel). Conditions: 1833 cells treated with demethylation reagent (FIG. 21D, 27B). Here is the method:
(§2) Cells were subjected to 5-azacytidine (1 or 3.6 μM), decitabine (5-aza-dC; 220 or 440 nM), or mock treatment by addition into cell culture at indicated concentration. Cells were treated daily. RNA and protein were isolated respectively.
Cell proliferation assays were performed by using the CellTiter-Blues assay (Promega) as described (4). Invasion assays were performed as described (4) with modifications. Briefly, the inserts were coated with Matrigel basement membrane matrix (BD Biosciences). To assess the cell invasion ability, […] cells were seeded on top of the polymerized Matrigel in serum-free medium, and complete medium (10% FBS) was placed in the lower compartment. After 24 h, cells on the lower part of the insert were stained with BD Calcein AM Fluorescent Dye. The inserts with the invaded cells were incubated in dissociation buffer (Travigen) with gentle shaking. Fluorescence measurements were used to record data with 485 nm for excitation and 530 nm for emission.

A further test relates to HOXA9 in 1833 cells. Kind of test: qRT-PCR / immunoblotting for HOXA9 after demethylation treatment of 1833 cells. The following applies: 1833 cells treated with demethylation reagent; qRT-PCR / immunoblotting (FIG. 20G, 27A, 27C). On the procedure:
Total RNA was isolated from cells by using miRNeasy Mini Kit (Qiagen) following the manufacturer's instructions. Quantitative RT-PCR (qRT-PCR) was performed as described (4). The qPCR primers for human or murine HMGA2, TET1, HOXA genes and GAPDH were Taqman and were purchased from Applied Biosystems.
Cells were lysed in complete lysis buffer (pH 7.5) by using Nuclear Extract Kit (Active Motif) following the manufacturer's protocols. Proteins were measured, separated, and probed as described (4). Antibodies specific for each protein were HMGA2 (61042; Active Motif), TET1 (sc-163446; Santa Cruz Biotechnologies), HOXA7 (09-086; Millipore), HOXA9 (09-178; Millipore), GAPDH (ab9484; Abcam), and Flag-M1 (F3040; Sigma).
as §2

Molecules are shown by their SMILES.

Turning to `Nc1ncn([C@@H]2O[C@H](CO)[C@@H](O)[C@H]2O)c(=O)n1` [5-azacytidine], the TET1 expression entry in the test on TET1 mRNA in 1833 cells was “increase in TET1 expression”. The HOXA7 expression entry in the test on HOXA7 mRNA in 1833 cells is listed as “dramatic increase”. For the same compound, in the test on 1833 cells, the cell invasion entry was “decreased cell invasion”. The HOXA9 expression entry with HOXA9 in 1833 cells was “dramatic increase”.

The values above are taken from patent US10679730B2, “Prognostic and predictive breast cancer signature” (The University of Chicago, priority 2013, dated 2020).
